In patent publication US20250262139A1, “POLYPEPTIDES AND METHODS FOR IMPROVING SKIN CONDITIONS” (INTERK PEPTIDE THERAPEUTICS LIMITED, priority 2020, published 2025):
Where no end group is shown, it is not given here.

How the values were obtained:
CREB-S133 = assay: CREB phosphorylation by western blot in keratinocytes after solar simulated UV; format: cell-based; conditions: 0.1 μM, 1 μM and 5 μM added immediately following ssUV irradiation
Protocol: The influence of the polypeptide IK34720 (SEQ ID NO: 3) on CREB phosphorylation was assessed using the following protocol.
Keratinocytes were harvested and cultured as previously described (Gupta et al., J Invest Dermatol, 2007, 127 (3): 707-215). Keratinocytes, (passages 1-5) from 3 independent donors were used in the experiments illustrated in FIG. 3.
Positive control treatment (denoted “D” in FIG. 3) was prepared by solubilizing Calcitriol (1,25-dihydroxyvitamin D3 (1,25 (OH)2D3)-Cayman Chemical, MI, USA) in 100% spectroscopic ethanol (Merck, Darmstadt, Germany) and the final concentration was determined by spectroscopy (NanoDrop 2000, Thermo Fisher Scientific, MA, USA). The polypeptide IK34720 (SEQ ID NO: 3) was solubilised in phosphate buffered saline (PBS) to a concentration of 1 mM at pH 7.2. A vehicle (denoted as “V” in FIG. 3) constituting 0.1% (v/v) spectroscopic ethanol and 0.1% (v/v) PBS was prepared for use as a negative control.
Cultured cells were irradiated by solar simulated UV-irradiation (ssUV) using an Oriel 1000W xenon-arc lamp (Stratford, CT, USA). Irradiation was administered at an energy level of 400 mJ/cm^2 for UVB and 3600 mJ/cm^2 for UVA (total 4000 mJ/cm^2), measured by an OL754 radiometer (Optronics Laboratories Inc., Orlando, FL). This dosage equates to approximately 4 min irradiation of the sun at 12 noon in October in Sydney, Australia. […]

[1] = system: ICR mice, punch skin wound; assay: murine wound model, wound closure; format: in vivo; conditions: topical 10 μg per mouse daily for 10 consecutive days; Day 5 to Day 11; vs negative control (PBS)
Text: FIGS. 1 and 2 illustrate the effect of polypeptides IK34720 (SEQ ID NO: 3—RSKAKNPLYRRRRRRRRR) (FIG. 1) and the dextro-reverso sequence IK236770 (SEQ ID NO: 4—rrrrrrrrrylpnkaksr) (FIG. 2), on wound healing over 10 days in a murine wound model in accordance with the following protocol.
Three groups of 8 male ICR mice with a mean weight of 22 g (+2 g) were used in the present study. The animals were housed in individual cages during the study. Under isoflurane gas anaesthesia, the shoulder and back region of each animal was shaved and a sharp punch (ID 12 mm) was used to induce a wound by removing the skin, including panniculus carnosus and adherent tissues on Day 1.
Following induction of the wound the polypeptides IK34720 and IK236770 were topically administered to the site of the wound at a dosage of 10 μg per animal. […] An additional group which comprised the administration of Phosphate buffered Saline (PBS) at pH 7.4 was used as a negative control.
The wound healing was analysed on Days 5, 7, 9 and 11 by tracing the periphery of the wound onto clear plastic sheets with the wound area calculated by an Image analyzer ProPlus (Media Cybernetics, Version 4.5.0.29. The percentage closure of the wound (%) was calculated. Percentage closure of the wound was determined on 5, 7, 9 and 11. ANOVA and Dunnett's test were applied to test significant significance between the treated groups (peptide and positive control groups) and the negative control group at each time point of measurement. Differences were considered statistically significant at P<0.05, and are indicated by *.

human skin explants = assay: sunburn (apoptotic) cells in UV-irradiated human skin explants; format: cell-based
Protocol: Skin explants were cultured irradiated and treated as described above for CPD, and subsequent to treatment were stained and quantified as described for Example 6.

primary keratinocytes = assay: CPD detection by IHC in keratinocytes 3 h following UV-irradiation; format: cell-based
Protocol: An in vitro assay was conducted allowing for densitometry analysis of CPD detection by IHC in keratinocytes 3 h following UV-irradiation in accordance with the following protocol.
Keratinocytes were harvested and cultured as described above at Example 2. Samples were split into two groups, being UV irradiated (UVR) and non-UV irradiated (SHAM). UV-irradiation was performed by solar simulated UV-irradiation for cells, also as described above at Example 2. Irradiation solution was PBS containing 5 mM D-glucose. […]
Harvested keratinocytes were plated on poly-D-lysine coated coverslips in 96 well plates and irradiated (or sham treated) as described above in at Example 2 in PBS containing 5 mM D-glucose. Keratinocytes were fixed 3 h after UV-irradiation. Immunohistochemistry and image analysis were performed as described previously (Gordon-Thomson et al., Photochem Photobiol Sci, 2012, 11 (12): 1837-47; Gupta et al., vide supra, Rybchyn M S et al., J Invest Dermatol, 2018; 138 (5): 1146-1156). Thymine dimers were detected using the anti-thymine dimer antibody (Sigma-Aldrich, Missouri, USA) at 10 μg/mL, and quantified as an index of CPD, as previously described (Douki T and Cadet J, Biochemistry, 2001, 40 (8): 2495-501).
Following irradiation, keratinocytes were treated with either Calcitriol, vehicle control (Veh) or the polypeptide IK34720 (SEQ ID NO: 3; “IK”) IK14800; (RSKAKNPLYRRRRRRRRR), RSKAKNPLY (IK94000) and RRRRRRRRR (IK00900), at concentrations of 5 μM.

[2] = 5 μM after ssUV, fixed 3 h after UV

For “RSKAKNPLYRRRRRRRRR (not fully specified (some residues)) [IK34720]”, the “UV-induced phosphorylation of serine at position 133 of CREB” value (CREB-S133) was “inhibits UV-induced phosphorylation”, the wound closure percentage [1] was “statistically significant increase” and the “number of apoptotic cells” value (human skin explants; 50 μM and 250 μM, 3 hrs and 24 hrs post UV-irradiation) was “reduces the number of apoptotic cells”. The “number of apoptotic cells” value (human skin explants; 80 μM, 400 μM and 800 μM, following UV-irradiation, data not shown) was “statistically significantly reduces the number of apoptotic cells”, the “number of apoptotic cells” value (human skin explants; 500 μM, 3 hrs and 24 hrs post UV-irradiation) was “statistically significantly reduces the number of apoptotic cells” and the “CPD levels compared to vehicle-treated UV-irradiated keratinocytes” value (primary keratinocytes; [2]) was “statistically significant (*p<0.05) reduction in CPD levels”. For the same sequence, the “reduction in CPD levels compared to Calcitriol” value (primary keratinocytes; [2]) was “comparable reduction in CPD levels to keratinocytes treated with Calcitriol”, the “inhibition of CPD formation (average intensity of CPD staining) compared to 1,25D” value (primary keratinocytes; 10 μM, FIG. 8B) was “more effective at inhibiting CPD formation than the positive control 1,25D” and the “CPD levels, dose response” value (primary keratinocytes; 0.5, 1, 2.5 or 5 μM after ssUV, fixed 3 h after UV) was “decreases CPD levels in primary keratinocytes exposed to solar simulated UV-irradiation in a dose dependent manner”.
